From article PMC8411975, “Frag4Lead: growing crystallographic fragment hits by catalog using fragment-guided template docking” (Acta Crystallographica. Section D, Structural Biology, 2021)
Read-outs that look alike come from different tables or passages of the source. Each block holds one molecule with its values, some of them ahead of it.

What was measured:
[1] = target: T1, endothiapepsin (EP) (Cryphonectria parasitica, UniProt P11838); design: method as in Schiebel, Radeva et al. (2016); conditions: starting fragments, ref Schiebel, Radeva et al. (2016), cited from earlier work; for Kd: read-out: Kd (dissociation constant of the compound from EP)
T1 sequence (P11838 90-419): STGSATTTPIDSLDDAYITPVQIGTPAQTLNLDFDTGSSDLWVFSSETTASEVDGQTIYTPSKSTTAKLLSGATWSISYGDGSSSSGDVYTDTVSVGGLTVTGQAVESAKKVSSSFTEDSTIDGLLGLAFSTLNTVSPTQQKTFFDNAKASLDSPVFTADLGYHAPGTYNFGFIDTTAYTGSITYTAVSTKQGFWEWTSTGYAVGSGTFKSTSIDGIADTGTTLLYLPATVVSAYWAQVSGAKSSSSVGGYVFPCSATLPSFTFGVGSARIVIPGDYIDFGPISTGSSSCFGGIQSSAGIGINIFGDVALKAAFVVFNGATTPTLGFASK

[2] = target: T1, endothiapepsin (EP); assay: Compound soaking into EP crystals and X-ray crystal structure determination; assay type: binding; conditions: soaking at 100 mM or supernatant, 16–22 h
Experimental: The follow-up compounds (a full list, including providers and purities, if known, is given in Supplementary Table S1) were directly dissolved in a soaking solution consisting of 68.2 mM sodium acetate pH 4.6, 68.2 mM ammonium acetate pH 7.0, 16.9%(w/v) PEG 4000, 19.3%(v/v) glycerol, 9.09%(v/v) DMSO to a concentration of 100 mM. For poorly soluble follow-up compounds, crystals were soaked in the supernatant of the solution. After incubation for 16–22 h the crystals were flash-cooled in liquid nitrogen and stored for diffraction data collection.
All data collections were carried out on beamlines BL14.1 and BL14.2 of the BESSY II electron-storage ring operated by the Helmholtz-Zentrum Berlin (HZB; Mueller et al., 2015[▸]). Typically, 360° of data were collected in 0.1° increments using an exposure time of 0.1 s. Data were automatically processed using XDSAPP (Sparta et al., 2016[▸]).
All structures were refined using the automated script fspipeline, which is based on Schiebel, Krimmer et al. (2016[▸]). The starting model was based on PDB entry 4y5l (Schiebel, Krimmer et al., 2016[▸]), from which all ligands and water molecules were removed. Electron-density maps and coordinate files obtained from the automated refinement were inspected manually for each experiment to judge the presence or absence of the expected ligand in the difference electron density. Subsequently, the identified hits were subjected to several rounds of alternating model building in Coot (Emsley et al., 2010[▸]) and refinement in Phenix (Liebschner et al., 2019[▸]) before and after ligand placement. For all follow-up ligands, occupancy refinement was carried out. Refined models and the corresponding electron-density maps were submitted to the PDB under group deposition ID G_1002201.

[3] = Stability of synthesized compound on exposure to air; assay type: physicochemical; conditions: exposed to air at room temperature over a longer period of time
[4] = Solubility noted during ITC sample preparation; assay type: physicochemical; conditions: ITC buffer, 0.1 M sodium acetate pH 4.6, 3%(v/v) DMSO
Experimental: (§1) ITC experiments were conducted similarly to the procedure desribed by Schiebel, Radeva et al. (2016[▸]) on a MicroCal ITC200 (Malvern) instrument. All buffer solutions for ITC were prepared with the same batch of buffer as used to isolate the batch of EP. Details of the ITC experiments, including the protein and ligand concentrations for each experiment, are listed in Supplementary Table S2. […] All displacement titrations were conducted as single measurements, except for that of FU5-2 (n = 3). The affinities of the stronger binding follow-up ligands were determined by direct ITC titrations. For this, 1 mM compound in a buffer solution consisting of 0.1 M sodium acetate pH 4.6, 3%(v/v) DMSO was titrated into the same buffer additionally containing 50 µM EP to a final stoichiometry of N = 4.

[5] = target: T1, endothiapepsin (EP); assay: Isothermal titration calorimetry (direct or SAP114-displacement titration) against EP; assay type: binding; conditions: for fold affinity increase compared with the starting fragment: ITC Kd of follow-up versus Kd of its starting fragment; for LE (ligand efficiency): from ITC Kd; for Kd: read-out: Kd determined by ITC
Experimental: as §1
The obtained thermogram peaks of all titrations (Supplementary Fig. S4) were integrated with Nitpic 1.1.8 (Keller et al., 2012[▸]). Subsequently, fitting of a single-site binding-model isotherm was performed using SEDPHAT 10.58d (Houtman et al., 2007[▸]). For the errors of the fit, see Supplementary Table S3. […] During the fit, ΔH was corrected for the heat of dilution, which was individually fitted for each experiment. The stoichiometry was arbitrarily fixed at the anticipated stoichiometry of N = 1 as appropriate for the present low c-value titrations (Rühmann et al., 2015[▸]).
Table S2. Details of ITC measurements.
Follow-Up Titration Concentration Ligand Concentration Final Stoichiometry
Compound Type in Cell Concentration in Syringe (Ligand:Protein)
[a] 0.1% (v/v) Tween 20 in s yringe and cell.
Table S3. Fitting statistics for ITC titration curves
Compound Global reduced chi-square[a] local rmsd[a] (B:A) n[c] Kd [µM] (SD)[d]
Isotherm fitting statistics of ITC data, anal yzed vi a SEDPHAT 10.58d (Houtman et al., 2007).
[a] Goodness of fit p arameters (glob al reduced chi-squ are and wei ghted local rmsd)
[b] Stochiometry o f the ligand protein A and t he ligand B at the infl ection point of the
[c] Number of used data points corresponding to injections of the ITC ex periment

Compound: NC1=NCc2ccccc21 [F005]
LE (ligand efficiency, binding energy per non-H atom) [1]: 0.38 kcal mol^−1 per atom | Kd [1]: 1700 µM

Compound: O=C(CN1CCCCC1)Nc1ccc2c(c1)OCO2 [F041]
LE (ligand efficiency, binding energy per non-H atom) [1]: 0.22 kcal mol^−1 per atom | Kd [1]: 900 µM

Compound: Cc1cc(CN)n(C)n1 [F058]
LE (ligand efficiency, binding energy per non-H atom) [1]: 0.31 kcal mol^−1 per atom | Kd [1]: 8800 µM

Compound: CSc1ccc(CNCCO)cc1 [FU58-3b, 2-{[4-(methylthio)benzyl]amino}ethan-1-ol]
binding observed in crystal structure after soaking [2]: identified in the electron density

stability of the compound [3]: decomposition | solubility [4]: poor solubility
Compound: NC1=N/C(=N\Nc2ccccc2)c2ccccc21 [FU5-1]

Compound: N=C(N)SCc1ccc(CSC(=N)N)cc1 [FU290-1]
fold affinity increase compared with the starting fragment [5]: 14 fold | LE (ligand efficiency) [5]: 0.44 kcal mol^−1 per atom | Kd [5]: 7.2 µM

Compound: CN(C)CCNC(=O)c1cc2n(n1)CCN(c1ccnc(N)n1)C2 [FU58-2]
binding observed in crystal structure after soaking [2]: observed in crystal structures

Compound: CSc1ccc(CN(CCO)Cc2cc(C)nn2C)cc1 [FU58-3]
LE (ligand efficiency) [5]: 0.19 kcal mol^−1 per atom | Kd [5]: 1040 µM | binding observed in crystal structure after soaking [2]: observed in crystal structures

Compound: NCc1ccc(-c2ccco2)nc1 [F066]
LE (ligand efficiency, binding energy per non-H atom) [1]: 0.35 kcal mol^−1 per atom | Kd [1]: 400 µM

Compound: N=C1N=C(N)c2ccccc21 [FU5-2]
LE (ligand efficiency) [5]: 0.37 kcal mol^−1 per atom | Kd [5]: 970 µM | binding observed in crystal structure after soaking [2]: retained the binding pose of F005

Compound: CC(SC(=N)N)c1ccc(Cl)cc1 (stereo not shown) [FU290-2]
LE (ligand efficiency) [5]: 0.40 kcal mol^−1 per atom | Kd [5]: 160 µM

Compound: NC1=NC(=O)c2ccccc21 [FU5-3]
LE (ligand efficiency) [5]: 0.39 kcal mol^−1 per atom | Kd [5]: 740 µM | binding observed in crystal structure after soaking [2]: retained the binding pose of F005

Compound: N=C(N)SCc1ccc(Cl)cc1 [F290]
LE (ligand efficiency, binding energy per non-H atom) [1]: 0.45 kcal mol^−1 per atom | Kd [1]: 100 µM

Compound: Cc1noc(C)c1CN(C)Cc1cc2n(n1)CCN(c1cc(N)ncn1)C2 [FU58-1]
fold affinity increase compared with the starting fragment [5]: about 20 fold | LE (ligand efficiency) [5]: 0.17 kcal mol^−1 per atom | Kd [5]: 450 µM | binding observed in crystal structure after soaking [2]: observed in crystal structures

Compound: Oc1nc(-c2ccco2)ccc1CN(Cc1ccccn1)C1CC1 [FU66-1]
LE (ligand efficiency) [5]: 0.21 kcal mol^−1 per atom | Kd [5]: 160 µM | binding observed in crystal structure after soaking [2]: observed in the crystal structure

Compound: N=C(N)N/N=C1\N=C(N)c2ccccc21 [FU5-4]
LE (ligand efficiency) [5]: 0.31 kcal mol^−1 per atom | Kd [5]: 400 µM
